According to ChEMBL document CHEMBL1151568, “New TXA2/PGH2 receptor antagonists based on the carbacyclin skeleton” (Bioorg Med Chem Lett, 1993):
pIC50: −log10 of the molar value.

Legend:
Homo sapiens [1] = species: Homo sapiens; experiment: Compound was tested for its ability to inhibit blood platelet aggregation induced by ADP; type: functional
Prostacyclin receptor [2] = target: T1, Prostacyclin receptor (Homo sapiens, UniProt P43119); experiment: (§1) Compound was tested for Prostanoid IP receptor affinity and expressed as competition factor (CF) which is the ratio of IC50 of test to IC50 of standard
T1 sequence (P43119 whole entry): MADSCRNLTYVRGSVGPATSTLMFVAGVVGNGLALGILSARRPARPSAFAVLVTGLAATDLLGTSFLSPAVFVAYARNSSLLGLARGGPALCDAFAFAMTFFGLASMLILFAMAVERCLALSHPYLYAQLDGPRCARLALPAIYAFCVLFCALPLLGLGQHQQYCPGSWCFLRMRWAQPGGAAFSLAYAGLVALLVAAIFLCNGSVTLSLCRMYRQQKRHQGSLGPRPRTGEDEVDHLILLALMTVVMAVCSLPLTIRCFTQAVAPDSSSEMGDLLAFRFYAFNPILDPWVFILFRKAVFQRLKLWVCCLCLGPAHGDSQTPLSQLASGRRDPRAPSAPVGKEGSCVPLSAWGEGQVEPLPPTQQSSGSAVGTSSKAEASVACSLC

Homo sapiens [3] = species: Homo sapiens; experiment: Compound was tested for its ability to inhibit blood platelet aggregation induced by TP-receptor agonist U 46619; type: functional
[4] = target: T2, Thromboxane A2 receptor (Homo sapiens) (UniProt P21731); experiment: TP receptor affinity, expressed as competition factor (CF) which is the ratio of IC50 of test to IC50 of standard
T2 sequence (whole entry): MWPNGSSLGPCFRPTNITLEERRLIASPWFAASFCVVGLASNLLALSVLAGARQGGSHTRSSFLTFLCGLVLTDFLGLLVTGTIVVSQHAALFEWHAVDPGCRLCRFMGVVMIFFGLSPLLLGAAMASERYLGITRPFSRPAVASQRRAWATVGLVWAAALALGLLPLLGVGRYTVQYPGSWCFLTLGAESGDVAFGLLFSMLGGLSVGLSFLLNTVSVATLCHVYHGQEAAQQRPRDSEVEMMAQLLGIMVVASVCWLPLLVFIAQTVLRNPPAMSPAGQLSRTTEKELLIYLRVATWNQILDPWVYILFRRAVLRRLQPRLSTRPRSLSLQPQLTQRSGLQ

[5] = target: T2, Thromboxane A2 receptor (Homo sapiens); experiment: Antiaggregatory potency relative to TP-receptor antagonist SQ 29548; type: functional
Prostacyclin receptor [6] = target: T1, Prostacyclin receptor; experiment: as §1; remark: listed apart in the source

| Structure (SMILES) | pIC50 (Homo sapiens [1]) | CF (Prostacyclin receptor [2]) | pIC50 (Homo sapiens [3]) | CF [4] | Relative potency [5] | IC50 (Prostacyclin receptor [6]) |
| --- | --- | --- | --- | --- | --- | --- |
| O=C(O)CCC/C=C1\C[C@H]2C[C@@H](O)[C@H](/C=N\OC(c3ccccc3)c3ccccc3)[C@H]2C1 | 6.00 | 160 | 5.80 | 95 | 0.03 | – |
| O=C(O)CCC/C=C1/C[C@H]2C[C@@H](O)[C@H](/C=N\OC(c3ccccc3)c3ccccc3)[C@H]2C1 | – | – | 4.64 | 210 | 0.001 | NC |
| O=C(O)CCC/C=C1/C[C@H]2C[C@@H](O)[C@H](/C=N/OCc3ccc(F)cc3)[C@H]2C1 | – | 250 | 4.85 | 500 | 0.001 | – |
| O=C(O)CCC/C=C1/C[C@H]2C[C@@H](O)[C@H](/C=N/OCc3ccc4ccccc4c3)[C@H]2C1 | – | 76 | 5.66 | 90 | 0.002 | – |
| O=C(O)CCC/C=C1/C[C@H]2C[C@@H](O)[C@H](/C=N/NC(=O)Nc3cccc(Cl)c3)[C@H]2C1 | – | – | – | 0.2 | 0.25 | – |
| O=C(O)CCC/C=C1\C[C@H]2CC[C@H](/C=N/NC(=O)Nc3ccc([N+](=O)[O-])cc3)[C@H]2C1 | – | – | – | 2.2 | 0.01 | – |
| O=C(O)CC/C=C1/C[C@H]2C[C@@H](O)[C@H](/C=N/NC(=O)Nc3cccc(Cl)c3)[C@H]2C1 | – | – | – | 2.4 | 0.11 | – |
| O=C(O)CCC/C=C1/C[C@H]2C[C@@H](O)[C@H](/C=N/NC(=O)Nc3ccc([N+](=O)[O-])cc3)[C@H]2C1 | – | – | – | 0.1 | 0.33 | – |
| O=C(O)COC/C=C1\C[C@H]2C[C@@H](O)[C@H](/C=N/NC(=O)Nc3ccc([N+](=O)[O-])cc3)[C@H]2C1 | – | – | – | 9.4 | 0.33 | – |
| O=C(O)CCC/C=C1/C[C@H]2C[C@@H](O)[C@H](/C=N/OCc3ccccc3)[C@H]2C1 | < 4.30 | 100 | 5.27 | 470 | 0.001 | – |
| O=C(O)COC/C=C1\C[C@H]2C[C@@H](O)[C@H](/C=N/NC(=O)Nc3ccccc3)[C@H]2C1 | – | – | – | 138 | 0.008 | – |
| O=C(O)CCC/C=C1\C[C@H]2C[C@@H](O)[C@H](/C=N/NC(=O)Nc3ccc([N+](=O)[O-])cc3)[C@H]2C1 | – | – | – | 0.7 | 0.1 | – |
| O=C(O)COC/C=C1/C[C@H]2C[C@@H](O)[C@H](/C=N/NC(=O)Nc3ccccc3)[C@H]2C1 | – | – | – | 16 | 0.014 | – |
| O=C(O)CCC/C=C1\C[C@H]2CC[C@H](/C=N/NC(=O)Nc3ccc(Cl)c(Cl)c3)[C@H]2C1 | – | – | – | 4.3 | 0.002 | – |
| O=C(O)CC/C=C1/C[C@H]2C[C@@H](O)[C@H](/C=N/NC(=O)Nc3ccccc3)[C@H]2C1 | – | – | – | 10 | 0.059 | – |
| O=C(O)COC/C=C1/C[C@H]2C[C@@H](O)[C@H](/C=N/NC(=O)Nc3ccc(Cl)c(Cl)c3)[C@H]2C1 | – | – | – | 0.7 | 0.33 | – |
| O=C(O)CCC/C=C1/C[C@H]2CC[C@H](/C=N/NC(=O)Nc3ccc([N+](=O)[O-])cc3)[C@H]2C1 | – | – | – | 0.7 | 0.01 | – |

Further lines, results first:

| pIC50 (Homo sapiens [1]) | CF (Prostacyclin receptor [2]) | pIC50 (Homo sapiens [3]) | CF [4] | Relative potency [5] | IC50 (Prostacyclin receptor [6]) | Structure (SMILES) |
| --- | --- | --- | --- | --- | --- | --- |
| – | – | – | 2.9 | 0.11 | – | O=C(O)COC/C=C1\C[C@H]2C[C@@H](O)[C@H](/C=N/NC(=O)Nc3ccc(Cl)c(Cl)c3)[C@H]2C1 |
| – | – | – | 0.8 | 0.33 | – | O=C(O)CC/C=C1/C[C@H]2C[C@@H](O)[C@H](/C=N/NC(=O)Nc3ccc(Cl)c(Cl)c3)[C@H]2C1 |
| – | – | – | 20 | 0.005 | – | O=C(O)CCC/C=C1\C[C@H]2C[C@@H](O)[C@H](/C=N/NC(=O)Nc3ccccc3)[C@H]2C1 |
| – | – | – | 0.8 | 0.038 | – | O=C(O)CCC/C=C1\C[C@H]2C[C@@H](O)[C@H](/C=N/NC(=O)Nc3ccc(Cl)c(Cl)c3)[C@H]2C1 |
| – | – | – | 22 | 0.027 | – | O=C(O)CC/C=C1\C[C@H]2C[C@@H](O)[C@H](/C=N/NC(=O)Nc3ccc([N+](=O)[O-])cc3)[C@H]2C1 |
| 5.70 | 7 | 5.72 | > 1000 | 0.009 | – | O=C(O)CCC/C=C1\C[C@H]2C[C@@H](O)[C@H](/C=N/OCc3ccccc3)[C@H]2C1 |
| – | – | – | 0.1 | 1 | – | O=C(O)CCC/C=C1/C[C@H]2C[C@@H](O)[C@H](/C=N/NC(=O)Nc3ccc(Cl)c(Cl)c3)[C@H]2C1 |
| – | – | – | 50 | 0.004 | – | O=C(O)CC/C=C1\C[C@H]2C[C@@H](O)[C@H](/C=N/NC(=O)Nc3cccc(Cl)c3)[C@H]2C1 |
| – | – | – | 18 | 0.03 | – | O=C(O)COC/C=C1\C[C@H]2C[C@@H](O)[C@H](/C=N/NC(=O)Nc3cccc(Cl)c3)[C@H]2C1 |
| – | – | – | 16 | 0.0007 | – | O=C(O)CCC/C=C1\C[C@H]2CC[C@H](/C=N/NC(=O)Nc3cccc(Cl)c3)[C@H]2C1 |
| 5.96 | 31 | 5.80 | 280 | 0.03 | – | O=C(O)CCC/C=C1\C[C@H]2C[C@@H](O)[C@H](/C=N/OCc3ccc4ccccc4c3)[C@H]2C1 |
| – | – | – | 40 | 0.0004 | – | O=C(O)CCC/C=C1\C[C@H]2CC[C@H](/C=N/NC(=O)Nc3ccccc3)[C@H]2C1 |
| – | – | – | 0.9 | 1 | – | O=C(O)COC/C=C1/C[C@H]2C[C@@H](O)[C@H](/C=N/NC(=O)Nc3ccc([N+](=O)[O-])cc3)[C@H]2C1 |
| – | – | – | 454 | 0.0007 | – | O=C(O)CC/C=C1\C[C@H]2C[C@@H](O)[C@H](/C=N/NC(=O)Nc3ccccc3)[C@H]2C1 |
| – | – | – | 1.6 | 0.003 | – | O=C(O)CCC/C=C1/C[C@H]2CC[C@H](/C=N/NC(=O)Nc3ccc(Cl)c(Cl)c3)[C@H]2C1 |
| – | – | – | 3 | 0.002 | – | O=C(O)CCC/C=C1/C[C@H]2CC[C@H](/C=N/NC(=O)Nc3ccccc3)[C@H]2C1 |
| – | – | – | 4 | 0.11 | – | O=C(O)COC/C=C1/C[C@H]2C[C@@H](O)[C@H](/C=N/NC(=O)Nc3cccc(Cl)c3)[C@H]2C1 |
| – | – | – | 0.5 | 8.3 | – | O=C(O)CC/C=C1/C[C@H]2C[C@@H](O)[C@H](/C=N/NC(=O)Nc3ccc([N+](=O)[O-])cc3)[C@H]2C1 |
| 5.82 | 20 | 5.72 | > 1000 | 0.009 | – | O=C(O)CCC/C=C1\C[C@H]2C[C@@H](O)[C@H](/C=N/OCc3ccc(F)cc3)[C@H]2C1 |
| – | – | – | 16 | 0.008 | – | O=C(O)CC/C=C1\C[C@H]2C[C@@H](O)[C@H](/C=N/NC(=O)Nc3ccc(Cl)c(Cl)c3)[C@H]2C1 |
| – | – | – | 1.6 | 0.09 | – | O=C(O)CCC/C=C1\C[C@H]2C[C@@H](O)[C@H](/C=N/NC(=O)Nc3cccc(Cl)c3)[C@H]2C1 |
| – | – | – | 1.5 | 0.17 | – | O=C(O)CCC/C=C1/C[C@H]2C[C@@H](O)[C@H](/C=N/NC(=O)Nc3ccccc3)[C@H]2C1 |
